# Data published in patent publication US8962608B2, “Cycloalkylnitrile pyrazole carboxamides as janus kinase inhibitors” (Merck Sharp & Dohme Corp., priority 2011, dated 2015).
# Molecular target: JAK2 (recombinant purified GST-tagged catalytic domain) (Homo sapiens (Human), UniProt O60674)
# Assay: biochemical
# 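Further: biochemical JAK kinase assay with HTRF detection.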
# Sequence of JAK2 (recombinant purified GST-tagged catalytic domain) (O60674 849-1124): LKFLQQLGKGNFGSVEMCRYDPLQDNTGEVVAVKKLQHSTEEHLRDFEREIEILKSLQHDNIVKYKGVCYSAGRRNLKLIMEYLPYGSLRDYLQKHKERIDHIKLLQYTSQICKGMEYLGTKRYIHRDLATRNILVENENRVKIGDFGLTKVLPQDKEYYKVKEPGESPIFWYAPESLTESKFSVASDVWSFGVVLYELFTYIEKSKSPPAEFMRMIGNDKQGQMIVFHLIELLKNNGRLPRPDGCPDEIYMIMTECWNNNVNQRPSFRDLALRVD
row,IC50,Structure (SMILES)
1,61 nM,"N#C[C@H]1C[C@@H](N2CC3(CCC3)C2)CC[C@@H]1n1cc(C(N)=O)c(Nc2ccccc2)n1 (single isomer, unassigned) [Example 28-136, 1-[(1S,2S,4S or 1R,2R,4R)-4-(2-azaspiro[3.3]hept-2-yl)-2-cyanocyclohexyl]-3-(phenylamino)-1H-pyrazole-4-carboxamide]"
2,12 nM,"N#C[C@H]1C[C@H](N2CCC2)CC[C@@H]1n1cc(C(N)=O)c(Nc2ccc([C@H](O)C(F)(F)F)cc2)n1 (single isomer, unassigned) [Example 28-65, 1-[(1S,2S,4R or 1R,2R,4S)-4-azetidin-1-yl-2-cyanocyclohexyl]-3-({4-[(1S or 1R)-2,2,2-trifluoro-1-hydroxyethyl]phenyl}amino)-1H-pyrazole-4-carboxamide]"
3,22 nM,"N#Cc1ccc(Nc2nn([C@H]3CCCC[C@@H]3C#N)cc2C(N)=O)cn1 (single isomer, unassigned) [Example 17-75, 1-[(1R,2R or 1S,2S)-2-cyanocyclohexyl]-3-[(6-cyanopyridin-3-yl)amino]-1H-pyrazole-4-carboxamide]"
4,13 nM,"N#C[C@H]1C[C@@H](N2CCC2)CC[C@@H]1n1cc(C(N)=O)c(Nc2ccc([C@@H](O)C(F)(F)F)cc2)n1 (single isomer, unassigned) [Example 28-87, 1-[(1S,2S,4S or 1R,2R,4R)-4-azetidin-1-yl-2-cyanocyclohexyl]-3-({4-[(1R or 1S)-2,2,2-trifluoro-1-hydroxyethyl]phenyl}amino)-1H-pyrazole-4-carboxamide]"
5,18 nM,"Cc1cc(Nc2nn([C@H]3CCCC[C@@H]3C#N)cc2C(N)=O)cnc1C#N (single isomer, unassigned) [Example 17-77, 1-[(1R,2R or 1S,2S)-2-cyanocyclohexyl]-3-[(6-cyano-5-methylpyridin-3-yl)amino]-1H-pyrazole-4-carboxamide]"
6,15 nM,"CS(=O)(=O)c1ccc(Nc2nn([C@H]3CC[C@@H](N4CC5(CCC5)C4)C[C@@H]3C#N)cc2C(N)=O)cc1 (single isomer, unassigned) [Example 28-145, 1-[(1S,2S,4R or 1R,2R,4S)-4-(2-azaspiro[3.3]hept-2-yl)-2-cyanocyclohexyl]-3-{[4-(methylsulfonyl)phenyl]amino}-1H-pyrazole-4-carboxamide]"
7,675 nM,"C[C@H](N[C@@H]1CC[C@H](n2cc(C(N)=O)c(Nc3ccc(C(F)(F)F)nc3)n2)[C@@H](C#N)C1)C1CC1 (single isomer, unassigned) [Example 28-19, 1-[(1S,2S,4R or 1R,2R,4S)-2-cyano-4-{[(1S)-1-cyclopropylethyl]amino}cyclo-hexyl]-3-{[6-(trifluoromethyl)pyridin-3-yl]amino}-1H-pyrazole-4-carboxamide]"
8,10 nM,"N#C[C@H]1C[C@@H](O)CC[C@@H]1n1cc(C(N)=O)c(Nc2ccc(C3CC3)cc2)n1 (single isomer, unassigned) [Example 33-18, 1-[(1S,2S,4S or 1R,2R,4R)-2-cyano-4-hydroxycyclohexyl]-3-[(4-cyclopropylphenyl)amino]-1H-pyrazole-4-carboxamide]"
9,12 nM,"C[C@@H](N[C@H]1CC[C@H](n2cc(C(N)=O)c(Nc3ccc(S(=O)(=O)C(F)(F)F)cc3)n2)[C@@H](C#N)C1)C1CC1 (single isomer, unassigned) [Example 28-182, 1-[(1S,2S,4S or 1R,2R,4R)-2-cyano-4-{[(1R)-1-cyclopropylethyl]amino}cyclo-hexyl]-3-({4-[(trifluoromethyl)sulfonyl]phen-yl}amino)-1H-pyrazole-4-carboxamide]"
10,18 nM,"CS(=O)(=O)c1ccc(Nc2nn(C3CCCC[C@H]3C#N)cc2C(N)=O)cc1 (mixture of isomers) [Example 2-14, 1-[(1S,2R and 1R,2S)-2-cyanocyclohexyl]-3-{[4-(methylsulfonyl)phenyl]amino}-1H-pyrazole-4-carboxamide]"
11,92 nM,"CN(C)[C@@H]1CC[C@H](n2cc(C(N)=O)c(Nc3ccc(OC(F)(F)F)cc3)n2)[C@@H](C#N)C1 (single isomer, unassigned) [Example 28-54, 1-[(1S,2S,4R or 1R,2R,4S)-2-cyano-4-(dimethylamino)cyclohexyl]-3-{[4-(trifluoromethoxy)phenyl]amino}-1H-pyrazole-4-carboxamide]"
12,120 nM,"N#C[C@H]1C[C@H](N2CCC2)CC[C@@H]1n1cc(C(N)=O)c(Nc2ccc(Cl)c(F)c2)n1 (single isomer, unassigned) [Example 28-37, 1-[(1S,2S,4R or 1R,2R,4S)-4-azetidin-1-yl-2-cyanocyclohexyl]-3-[(4-chloro-3-fluorophenyl)amino]-1H-pyrazole-4-carboxamide]"
13,4 nM,"N#C[C@H]1C[C@@H](NCC(F)F)CC[C@@H]1n1cc(C(N)=O)c(Nc2ccc(S(=O)(=O)C(F)(F)F)cc2)n1 (single isomer, unassigned) [Example 28-165, 1-{(1S,2S,4S or 1R,2R,4R)-2-cyano-4-[(2,2-difluoroethyl)amino]cyclohexyl}-3-({4-[(trifluoro-methyl)sulfonyl]phenyl}amino)-1H-pyrazole-4-carboxamide]"
14,39 nM,"N#C[C@H]1CCCC[C@@H]1n1cc(C(N)=O)c(Nc2ccc(OC(F)F)nc2)n1 (racemic) [Example 17-102, 1-[(1S,2S and 1R,2R)-2-cyanocyclohexyl]-3-{[6-(difluoromethoxy)pyridin-3-yl]amino}-1H-pyrazole-4-carboxamide]"
15,39 nM,"CC1(C)CN([C@H]2CC[C@H](n3cc(C(N)=O)c(Nc4ccc(C(F)(F)F)cc4)n3)[C@@H](C#N)C2)C1 (single isomer, unassigned) [Example 28-202, 1-[(1S,2S,4S or 1R,2R,4R)-2-cyano-4-(3,3-dimethylazetidin-1-yl)cyclohexyl]-3-{[4-(trifluoromethyl)phenyl]amino}-1H-pyrazole-4-carboxamide]"
16,61 nM,"C[C@@H](N[C@@H]1CC[C@H](n2cc(C(N)=O)c(Nc3ccc(S(=O)(=O)C(F)(F)F)cc3)n2)[C@@H](C#N)C1)C1CC1 (single isomer, unassigned) [Example 28-183, 1-{(1S,2S,4R or 1R,2R,4S)-2-cyano-4-[(1-cyclopropylethyl)amino]cyclo-hexyl}-3-({4-[(trifluoromethyl)sulfonyl]phen-yl}amino)-1H-pyrazole-4-carboxamide]"
17,8 nM,"N#C[C@H]1C[C@@H](NCC2CC2)CC[C@@H]1n1cc(C(N)=O)c(Nc2ccc(S(=O)(=O)C(F)(F)F)cc2)n1 (single isomer, unassigned) [Example 28-172, 1-{(1S,2S,4S or 1R,2R,4R)-2-cyano-4-[(cyclopropylmethyl)amino]cyclo-hexyl}-3-({4-[(trifluoromethyl)sulfonyl]phen-yl}amino)-1H-pyrazolc-4-carboxamide]"
18,25 nM,"CC1(N[C@H]2CCC(n3cc(C(N)=O)c(Nc4ccc(Cl)cc4)n3)[C@@H](C#N)C2)CCOCC1 (single isomer, unassigned) [Example 28-235, 3-[(4-chlorophenyl)amino]-1-{(1S,2S,4S or 1R,2R,4R)-2-cyano-4-[(4-methyltetrahydro-2H-pyran-4-yl)amino]cyclohexyl}-1H-pyrazole-4-carboxamide]"
19,25 nM,"N#C[C@H]1C[C@H](O)CC[C@@H]1n1cc(C(N)=O)c(Nc2ccc(C3CC3)cc2)n1 (single isomer, unassigned) [Example 25-14, 1-[(1S,2S,4R or 1R,2R,4S)-2-cyano-4-hydroxycyclohexyl]-3-[(4-cyclopropylphenyl)amino]-1H-pyrazole-4-carboxamide]"
20,4 nM,"CC1(C)CN([C@H]2CC[C@H](n3cc(C(N)=O)c(Nc4ccc([C@@H](O)C(F)(F)F)cc4)n3)[C@@H](C#N)C2)C1 (single isomer, unassigned) [Example 28-61, 1-[(1S,2S,4S or 1R,2R,4R)-2-cyano-4-(3,3-dimethylazetidin-1-yl)cyclohexyl]-3-({4-[(1R or 1S)-2,2,2-trifluoro-1-hydroxyethyl]phenyl}amino)-1H-pyrazole-4-carboxamide]"
21,31 nM,"N#C[C@H]1C[C@@H](NCC(F)(F)F)CC[C@@H]1n1cc(C(N)=O)c(Nc2ccc(S(=O)(=O)C(F)(F)F)cc2)n1 (single isomer, unassigned) [Example 28-107, 1-{(1S,2S,4S or 1R,2R,4R)-2-cyano-4-[(2,2,2-trifluoroethyl)amino]cyclohexyl}-3-({4-[(trifluoro-methyl)sulfonyl]phenyl}amino)-1H-pyrazole-4-carboxamide]"
22,14 nM,"CN(C)[C@H]1CC[C@H](n2cc(C(N)=O)c(Nc3ccc(C(F)(F)F)cc3)n2)[C@@H](C#N)C1 (single isomer, unassigned) [Example 28-188, 1-[(1S,2S,4S or 1R,2R,4R)-2-cyano-4-(dimethylamino)cyclohexyl]-3-{[4-(trifluoromethyl)phenyl]amino}-1H-pyrazole-4-carboxamide]"
23,14 nM,"N#C[C@H]1C[C@H](OCC2CC2)CC[C@@H]1n1cc(C(N)=O)c(Nc2ccc([C@@H](O)C(F)(F)F)cc2)n1 (single isomer, unassigned) [Example 26-5, 1-[(1S,2S,4R or 1R,2R,4S)-2-cyano-4-(cyclopropylmethoxy)cyclohexyl]-3-({4-[(1R or 1S)-2,2,2-trifluoro-1-hydroxyethyl]phenyl}amino)-1H-pyrazole-4-carboxamide]"
24,11 nM,"CC(N[C@H]1CC[C@H](n2cc(C(N)=O)c(Nc3ccc(S(=O)(=O)C(F)(F)F)cc3)n2)[C@@H](C#N)C1)C1CC1 (single isomer, unassigned) [Example 28-176, 1-[(1S,2S,4S or 1R,2R,4R)-2-cyano-4-{[(1R)-1-cyclopropylethyl]amino}cyclo-hexyl]-3-({4-[(trifluoromethyl)sulfonyl]phen-yl}amino)-1H-pyrazole-4-carboxamide]"
25,135 nM,"CN(CC1CC1)[C@@H]1CC[C@H](n2cc(C(N)=O)c(Nc3ccc(C(F)(F)F)cc3)n2)[C@@H](C#N)C1 (single isomer, unassigned) [Example 30-2, 1-{(1S,2S,4R or 1R,2R,4S)-2-cyano-4-[(cyclopropyl-methyl)(methyl)amino]cyclo-hexyl}-3-{[4-(trifluoromethyl)phenyl]amino}-1H-pyrazole-4-carboxamide]"
